{"source": "patent US9926354B2", "about": "“Amyloid precursor protein (APP) based Ã#-secretase inhibitor peptides, and methods of use” (UNIVERSITY OF SOUTH FLORIDA, priority 2014, dated 2018)", "key": {"[1]": {"molecular_target": "T1, BACE1 (Homo sapiens, UniProt P56817)", "T1 sequence (P56817 46-501)": "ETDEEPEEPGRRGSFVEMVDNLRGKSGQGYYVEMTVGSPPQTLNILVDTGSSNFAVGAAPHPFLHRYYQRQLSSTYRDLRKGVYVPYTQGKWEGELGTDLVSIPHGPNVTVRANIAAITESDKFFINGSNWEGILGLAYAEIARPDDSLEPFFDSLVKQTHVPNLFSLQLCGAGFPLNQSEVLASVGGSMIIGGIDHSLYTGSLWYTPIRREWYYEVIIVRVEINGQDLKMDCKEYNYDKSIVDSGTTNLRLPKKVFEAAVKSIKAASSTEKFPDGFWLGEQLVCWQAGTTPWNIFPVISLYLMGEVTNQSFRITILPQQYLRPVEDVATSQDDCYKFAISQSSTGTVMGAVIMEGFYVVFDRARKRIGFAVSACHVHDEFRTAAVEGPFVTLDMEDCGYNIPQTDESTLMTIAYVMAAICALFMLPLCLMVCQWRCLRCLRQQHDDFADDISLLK", "parameters": "purchased Pan Vera Co., Madison, Wis., USA", "settings": "phase II clinical trial suspended June 2013; cited from earlier work"}, "[2]": {"tested_on": "γ-secretase", "settings": "Phase 3; cited from earlier work"}, "[3]": {"molecular_target": "T1, BACE1", "experiment": "BACE1 activity assay (FRET, cell-free)", "format": "biochemical", "parameters": "purchased Pan Vera Co., Madison, Wis., USA", "description": "BACE1 Activity Assay—The BACE1 inhibiting activity of APP-based BACE1 site binding peptides were determined using a fluorescence resonance energy transfer (FRET) assay (Pan Vera Co., Madison, Wis., USA), which employs a recombinant baculovirus-expressed BACE1 and a specific substrate (Rh-[…]-quencher) that is based on the APPswe mutation. This specific peptide substrate becomes highly fluorescent upon enzymatic cleavage. A mixture of 10 μL of BACE1 (1.0 U/mL in 50 mM Tris, pH7.5, 10% glycerol), 10 μL of FRET-substrate, and 10 μL of the various APP-based BACE1 site binding peptides (final concentration 20 μM) were incubated for 90 minutes in the dark at room temperature. Then, 10 μL of BACE1 stop buffer (2.5 M sodium acetate) was added to the mixture. Fluorescence was read using a fluorometer, with excitation at 545 nm and emission at 585 nm.\nAs a required enzyme for the generation of neurotoxic Aβ from APP, BACE1 is well established as an important mediator of AD β-amyloid pathology. As such, it has become an important target for new disease modifying therapeutics. However, since BACE1 also has important physiological roles, abolishment of the enzyme or its activity may lead to deleterious side effects as evidenced by numerous failed clinical trials discussed previously. […] Since previous studies have established a close relationship between α-helix structure and peptide-protein (or protein-protein) interactions (Azzarito, 2013; Rao et al., 2013), several APP based peptides were synthesized that might serve as a preferable substrate for BACE1. Importantly, these peptides were free of the Aβ-containing segment and, thus, cannot be amyloidogenic. In theory, these could be used to “hijack” the BACE1 processing of endogenous APP and lead to a decrease in cerebral Aβ. These BACE1 substrates and controls were incubated with recombinant BACE1 and percent of inhibition of the enzyme was calculated. […] These findings indicate that the α-helical TAT fusion domain may help to promote selective APPsweBBP proteolysis by BACE1, yielding substrate competition against human wild-type APP."}, "[4]": {"tested_on": "5XFAD mice", "experiment": "WB of BACE1, ADAM10, ADAM17, Akt, phospho-Akt and MBP in brain homogenates of 5XFAD mice", "format": "in vivo, mouse", "settings": "vs TAT and PBS", "description": "5XFAD Mice—Transgenic AD mice [5XFAD; B6SJL-Tg(APPSwF1Lon,PSEN1*M146L*L286V) 6799Vas/Mmjax] at 2.5 months of age were obtained from the Jackson Laboratory (Bar Harbor, Me., USA) and housed and maintained in the Animal Facility of College of Medicine at University of South Florida. The mice at 3.5 months of age were treated with TAT-APPsweBBP, TAT peptide (100 nM/kg in 100 μl PBS) or PBS (100 μl) intraperitioneally (i.p.) daily for eight consecutive weeks. The mice were subjected to behavioral testing after 8 week-treatment and euthanized for immunohistochemical, ELISA and WB analysis after completing behavioral tests. All experiments involving mice were in compliance with the U.S. Department of Health and Human Services Guide for the Care and Use of Laboratory Animals and in accordance with the guidelines of the USF Institutional Animal Care and Use Committee.\nWestern Blotting (WB) and Analysis—WB analysis was performed as previously described (Modi et al., 2013; Tung et al., 2002). Briefly, the proteins from the various cell-free, cell and brain lysates or homogenates were electrophoretically separated using 10% bicine/tris gel (8 M urea) for proteins less than 5 kD or 10% tricine/tris gels for larger proteins. […]\nIn addition to cognitive testing, neuronal APP proteolysis was also evaluated by ELISA and WB. […]"}, "[5]": {"format": "in vivo, mouse", "settings": "biotin-labeled, 100 nM/kg i.p. daily for 5 days, 4 hours after last injection, 5XFAD mice", "description": "In order to determine the BBB permeability of TAT-APPsweBBP, biotin-labeled TAT-APPsweBBP or APPsweBBP (100 nM/kg in 100 μl physiological saline) was intraperitoneally (i.p.) administered daily to 5XFAD mice at 2 months of age for 5 days (n=5, female). The mice were euthanized 4 hours after the last injection and then brain tissues were removed, sectioned and stained with anti-BACE1 and anti-biotin antibodies. Alexa Fluor® 594 donkey anti-rabbit IgG was used to detect the biotin signal and Alexa Fluor® 488 goat anti-mouse IgG was used to detect the BACE1 signal. All images were taken with an Olympus Fluoview FV1000 laser scanning confocal microscope. […] No noticeable differences in biotin distribution were observed between 5XFAD and WT control mice following either biotin-labeled TAT-APPsweBBP or APPsweBBP injection (data not shown).\nThe hypothesis that TAT-APPsweBBP would more effectively penetrate the BBB compared with APPsweBBP alone was initially tested. 5XFAD mice at 2 months of age (n=5, female) were treated with biotin-labeled TAT-APPsweBBP or APPsweBBP (100 nM/kg, i.p.) daily for 5 days and then euthanized 4 hours after the last injection. Brain tissues were removed, sectioned, and stained with anti-BACE1 and anti-biotin antibodies. […] This highlights the importance of the membrane fusion fragment of the HIV-1 Tat protein (TAT) for cerebral delivery of APPsweBBP."}}, "note": "No end group written: not given here.", "data": [{"compound": "NC1=N[C@@]2(c3cc(NC(=O)c4ccc(F)cn4)ccc3F)COC[C@H]2CS1", "note": "[LY2886721]", "values": [{"measurement": "reason for trial suspension", "setting": "[1]", "result": "possible liver toxicity"}]}, {"compound": "CC(C)[C@H](O)C(=O)N[C@@H](C)C(=O)N[C@@H]1C(=O)N(C)CCc2ccccc21", "note": "[semagacestat]", "values": [{"measurement": "activities of daily living and cognition in treated patients", "setting": "[2]", "result": "worsened"}]}, {"compound": "YGRKKRRQRRREISEVNLDAEFR [APPsweBBP/TTD2]", "values": [{"measurement": "% of inhibition (mean ± SD) of BACE1", "setting": "[3]; peptide final concentration 20 μM, 90 minutes, room temperature, listed as TAT-APPswe^bBBP, 20 µM", "result": "93.23 ± 2.73", "unit": "%"}, {"measurement": "inhibition at 20 µM", "setting": "[3]; read-out: % of inhibition (mean ± SD) of BACE1, peptide final concentration 20 μM, 90 minutes, room temperature", "result": "> 90", "unit": "%"}, {"measurement": "total Akt, phosphorylated Akt and MBP expression levels in brain homogenates", "setting": "[4]", "result": "did not differ"}, {"measurement": "BBB penetration", "setting": "[5]", "result": "highly penetrated the BBB"}]}]}
